Experiment: not given
Details: not given

Row | Compound | logP
1 | Cc1cccc(C)c1OC(=O)c1ccccc1CN1CCCC1 | 3.09
2 | Cc1cccc(C)c1OC(=O)c1cccc(CN2CCCC2)c1 | 3.18
3 | Cc1cccc(C)c1NC(=O)c1ccc(CN2CCOCC2)cc1 | 1.76
4 | Cc1cccc(C)c1OCc1ccccc1CN1CCOCC1 | 4.16

Other lines, results leading:

Row | logP | Compound
5 | 2.99 | CCN(CC)Cc1cccc(C(=O)Oc2c(C)cccc2C)c1
6 | 3.5 | Cc1cccc(C)c1OC(=O)c1ccc(CN2CCCCC2)cc1
7 | 3.2 | Cc1cccc(C)c1OC(=O)c1ccc(CN2CCCC2)cc1

Experiment: method code SF-AS, from DOI: 10.1002/qsar.19880070104
Details: pH 7.4

Row | Compound | logD
8 | Cc1cccc(C)c1OC(=O)c1ccc(CN2CCOCC2)cc1 | 3.92
9 | Cc1cccc(C)c1OC(=O)OCc1cccc(CN2CCOCC2)c1 | 3.47
10 | Cc1cccc(C)c1NC(=O)OCc1ccccc1CN1CCOCC1 | 2.8
11 | Cc1cccc(C)c1OC(=O)NCc1ccc(CN2CCOCC2)cc1 | 2.7
12 | Cc1cccc(C)c1NC(=O)OCc1cccc(CN2CCOCC2)c1 | 1.85
13 | Cc1cccc(C)c1OCc1ccc(CN2CCOCC2)cc1 | 3.76
14 | Cc1cccc(C)c1OC(=O)c1cccc(CN2CCOCC2)c1 | 3.91
15 | Cc1cccc(C)c1NC(=O)c1ccccc1CN1CCOCC1 | 2.46
16 | Cc1cccc(C)c1OC(=O)NCc1ccccc1CN1CCOCC1 | 3.54
17 | Cc1cccc(C)c1OC(=O)NCc1cccc(CN2CCOCC2)c1 | 2.91

Next, values leading:

Row | logD | Compound
18 | 3.74 | Cc1cccc(C)c1OCc1cccc(CN2CCOCC2)c1
19 | 3.48 | Cc1cccc(C)c1OC(=O)c1ccccc1CN1CCOCC1
20 | 2.2 | Cc1cccc(C)c1NC(=O)OCc1ccc(CN2CCOCC2)cc1
21 | 3.34 | Cc1cccc(C)c1OC(=O)OCc1ccc(CN2CCOCC2)cc1

Reference: the SangsterLogP compilation
